Data from paper PMC3769973 (Organic & biomolecular chemistry, 2011).

Key:
proteasome β5 subunit = proteasome β5 subunit (Homo sapiens, UniProt P28074); assay: Competition assay versus MVB003 in HEK293T lysate, β5 band; assay type: biochemical
proteasome β1 subunit [1] = target: T1, proteasome β1 subunit (Homo sapiens, UniProt P28072); assay: Competition assay versus MVB003 in living HEK cells, β1 band; assay type: cell-based; conditions: inhibitor 4 h
proteasome β1 subunit [2] = target: T1, proteasome β1 subunit; assay: Competition assay versus MVB003 in HEK293T lysate, β1 band; assay type: biochemical
proteasome β2 subunit = proteasome β2 subunit (Homo sapiens, UniProt Q99436); assay: Competition assay versus MVB003 in HEK293T lysate, β2 band; assay type: biochemical
[3] = tested on: proteasome in living HEK cells

Row | Compound | IC50 (proteasome β5 subunit) | Potency in living HEK cells relative to NC001 (proteasome β1 subunit [1]) | IC50 (proteasome β1 subunit [2]) | IC50 (proteasome β2 subunit) | Cell permeability [3] | Fold lower concentration for β5 inhibition compared to SylA (proteasome β5 subunit; HEK lysate, Fig. 7) | Inhibition of β5 in HEK lysate (proteasome β5 subunit; HEK lysate, at 100 nM inhibitor, Fig. 7)
1 | CC(C)C[C@H](NC(=O)[C@@H](NC(=O)N[C@H](C(=O)OC(C)(C)C)C(C)C)C(C)C)C(=O)[C@@]1(C)CO1 [Compound 5, tBuO-Val-urea-Val-Leu-EK2] | ~50 µM | fivefold higher potency | 0.46 µM | > 50 µM |  |  | 
2 | CC(C)C[C@H](NC(=O)[C@@H](NC(=O)N[C@H](C(=O)O)C(C)C)C(C)C)C(=O)[C@@]1(C)CO1 [Compound 6, HO-Val-urea-Val-Leu-EK] | > 50 µM |  | 1.4 µM | > 50 µM |  |  | 
3 | CC(C)C[C@H](NC(=O)[C@@H](NC(=O)N[C@H](C(=O)NCc1ccccc1)C(C)C)C(C)C)C(=O)[C@@]1(C)CO1 [Compound 7, Benzylamide-Val-urea-Val-Leu-EK] | 2.9 µM |  | 0.52 µM | > 50 µM |  |  | 
4 | CC(C)C[C@H](NC(=O)[C@@H](NC(=O)N[C@H](C(=O)OC(C)(C)C)C(C)C)C(C)C)C(=O)N[C@@H](CC(C)C)C(=O)[C@@]1(C)CO1 [Compound 13, tBuO-Val-urea-Val-Leu2-EK] | 0.016 µM |  | 1.3 µM | 0.69 µM | cell permeable | about 100 fold | fully inhibits
5 | CC(C)C[C@H](NC(=O)[C@@H](NC(=O)N[C@H](C(=O)O)C(C)C)C(C)C)C(=O)N[C@@H](CC(C)C)C(=O)[C@@]1(C)CO1 [Compound 14, HO-Val-urea-Val-Leu2-EK] | 0.48 µM |  |  |  |  |  | 

Other lines, results leading:

Row | IC50 (proteasome β5 subunit) | Potency in living HEK cells relative to NC001 (proteasome β1 subunit [1]) | IC50 (proteasome β1 subunit [2]) | IC50 (proteasome β2 subunit) | Cell permeability [3] | Fold lower concentration for β5 inhibition compared to SylA (proteasome β5 subunit; HEK lysate, Fig. 7) | Inhibition of β5 in HEK lysate (proteasome β5 subunit; HEK lysate, at 100 nM inhibitor, Fig. 7) | Compound
6 |  |  |  |  | cell permeable | about 100 fold |  | CC(C)C[C@H](NC(=O)[C@@H](NC(=O)N[C@H](C(=O)NCc1ccccc1)C(C)C)C(C)C)C(=O)N[C@@H](CC(C)C)C(=O)[C@@]1(C)CO1 [Compound 15, Benzylamide-Val-urea-Val-Leu2-EK]
7 |  |  | > 50 µM | > 50 µM |  |  |  | CCCCCCCCCCNC(=O)N[C@H](C(=O)N[C@@H](CC(C)C)C(=O)N[C@@H](CC(C)C)C(=O)[C@@]1(C)CO1)C(C)C [Compound 16, Decyl-urea-Val-Leu2-EK]
